Counter-ions that a name gives are not always drawn.

As a reminder, the melting point is the temperature of the solid-liquid transition. `C[C@@H]1CCCN1CCc1ccc2cc(-c3cccc(C#N)c3)ccc2c1` [Example 7, 3-(6-{2-[(2R)-2-methyl-1-pyrrolidinyl]ethyl}-2-naphthyl)benzonitrile] yielded a melting point of 228.5 to 231.6 °C.

In the case of `C[C@@H]1CCCN1CCc1ccc2cc(-c3ccc(C#N)cc3)ccc2n1` (as salt: tartrate) [Example 42, 4-(2-{2-[(2R)-2-methyl-1-pyrrolidinyl]ethyl}-6-quinolinyl)benzonitrile], the melting point was 164 °C. On to `C[C@@H]1CCCN1CCc1ccc2cc(Br)ccc2c1` (as salt: HCl) [Example 2, (2R)-1-[2-(6-bromo-2-naphthyl)ethyl]-2-methylpyrrolidine], for which the melting point was 247.3 to 250.7 °C. As for `COc1ccc(-c2ccc3nc(CCN4CCC[C@H]4C)ccc3c2)cc1` (as salt: hydrochloride) [Example 46, 6-(4-methoxyphenyl)-2-{2-[(2R)-2-methyl-1-pyrrolidinyl]ethyl}quinoline], the melting point is 165 °C (dec.).

Consider `C[C@@H]1CCCN1CCc1ccc2cc(-c3cccnc3)ccc2n1` (as salt: hydrochloride) [Example 51, 2-{2-[(2R)-2-methyl-1-pyrrolidinyl]ethyl}-6-(3-pyridinyl)quinoline], for which the melting point was in the range of 205 to 207 °C. For `C[C@@H]1CCCN1Cc1ccc2cc(-c3ccc(C#N)cc3)ccc2c1` (as salt: hydrochloride) [Example 6, 4-(6-{[(2R)-2-methyl-1-pyrrolidinyl]methyl}-2-naphthyl)benzonitrile], the melting point lay in the range of 212.6 to 213.6 °C. As to `C[C@@H]1CCCN1CCc1ccc2cc(C(=O)c3cccc(F)c3)ccc2n1` (as salt: hydrochloride) [Example 50, (3-fluorophenyl)(2-{2-[(2R)-2-methyl-1-pyrrolidinyl]ethyl}-6-quinolinyl)methanone], the melting point is 162 to 164 °C (dec.).

For the molecule `C[C@@H]1CCCN1CCc1ccc2cc(-c3ccc(F)cc3)ccc2n1` (as salt: hydrochloride) [Example 43, 6-(4-fluorophenyl)-2-{2-[(2R)-2-methyl-1-pyrrolidinyl]ethyl}quinoline], the melting point worked out at 145 °C. Under `C[C@@H]1CCCN1CCc1ccc2cc(-c3ccc(C(F)(F)F)cc3)ccc2n1` (as salt: hydrochloride) [Example 47, 2-{2-[(2R)-2-methyl-1-pyrrolidinyl]ethyl}-6-[4-(trifluoromethyl)phenyl]quinoline] stands 143 to 145 °C (dec.).

Source of the values: patent publication US20040092521A1, “Bicyclic-substituted amines as histamine-3 receptor ligands” (priority 2002, published 2004).
